Experimental data published in PMC3265452 (PLoS Neglected Tropical Diseases, 2012).
Structures can show the parent of a compound that is named as a salt. Where two headings read alike, the source gives them in different places.

Molecular target: AaDOP2 (Aedes aegypti, UniProt H6D5H2)
Experiment: AaDOP2 antagonist screen of the LOPAC1280 library (HEK-CRELuc-Aadop2 cells, luminescence)
Type: cell-based
[1] = 10 µM compound, 300 nM dopamine, 2 hr, hit = compound effect <20

Chain of AaDOP2 (H6D5H2 1-476): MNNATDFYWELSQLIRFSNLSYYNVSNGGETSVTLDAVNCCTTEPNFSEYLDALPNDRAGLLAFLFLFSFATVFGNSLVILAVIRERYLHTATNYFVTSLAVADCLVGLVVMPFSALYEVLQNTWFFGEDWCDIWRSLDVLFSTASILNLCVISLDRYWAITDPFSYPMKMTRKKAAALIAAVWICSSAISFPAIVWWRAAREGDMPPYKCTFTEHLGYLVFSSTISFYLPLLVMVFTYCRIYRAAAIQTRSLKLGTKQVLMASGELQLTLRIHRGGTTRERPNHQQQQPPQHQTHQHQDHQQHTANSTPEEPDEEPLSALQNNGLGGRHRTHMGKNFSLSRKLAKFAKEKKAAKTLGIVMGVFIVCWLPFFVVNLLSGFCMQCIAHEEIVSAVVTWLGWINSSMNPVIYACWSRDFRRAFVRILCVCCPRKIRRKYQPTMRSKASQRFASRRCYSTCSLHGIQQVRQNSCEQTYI

| Compound | Compound effect (percent receptor signaling in presence of test compound, relative lux units relative to the SCH23390 control) | also measured |
| --- | --- | --- |
| COc1cc2c(CCNC(C)=O)c[nH]c2cc1O [Compound 574, 6-Hydroxymelatonin] |  | Compound effect (percent receptor signaling in presence of test compound, relative lux units relative to the SCH23390 control) [1]: 101% |
| C[N+](C)(C)CCCCCC[N+](C)(C)C [Compound 575, Hexamethonium bromide] | 91 |  |
| COc1cc(CC(=O)O)ccc1O [Compound 576, 4-Hydroxy-3-methoxyphenylacetic acid] | 82 |  |
| NCCS(=O)O [Compound 578, Hypotaurine] | 89 |  |
| NNc1nncc2ccccc12 [Compound 580, Hydralazine hydrochloride] | 100 |  |
| Cl.OCc1c[nH]cn1 [Compound 581, 4-Imidazolemethanol hydrochloride] | 114 |  |
| C[N+](C)(C)CCCCCC[N+](C)(C)C.[Cl-].[Cl-] [Compound 582, Hexamethonium dichloride] | 94 |  |
| C[C@]12CCC(=O)C=C1CC[C@@H]1[C@@H]2[C@@H](O)C[C@@]2(C)[C@H]1CC[C@]2(O)C(=O)COC(=O)CCC(=O)[O-].[Na+] [Compound 583, Hydrocortisone 21-hemisuccinate sodium] |  | Compound effect (percent receptor signaling in presence of test compound, relative lux units relative to the SCH23390 control) [1]: 136% |
| COc1ccc(CCN)cc1O.Cl [Compound 586, 4-Methoxy-3-hydroxyphenethylamine hydrochloride] | 130 |  |
| Nc1c2c(nc3ccccc13)CCCC2O.O=C(O)/C=C\C(=O)O (stereo not shown) [Compound 587, Hydroxytacrine maleate] | 86 |  |
| C[C@]12CCC(=O)C=C1CC[C@@H]1[C@@H]2[C@@H](O)C[C@@]2(C)[C@H]1CC[C@]2(O)C(=O)CO [Compound 588, Hydrocortisone] | 78 |  |
| [Cl-].[Li+] [Compound 589, Lithium Chloride] | 86 |  |
| COC(=O)[C@H](NC(=O)c1cc(-c2ccccc2)nc2ccccc12)c1ccccc1 [Compound 591, SB 218795] | 98 |  |
| O=c1cc(O)cc(/C=C/c2ccc(O)c(O)c2)o1 [Compound 592, Hispidin] | 81 |  |
| CCCc1c(-c2ccc(O)cc2)nn(-c2ccc(O)cc2)c1-c1ccc(O)cc1 [Compound 594, 1,3,5-tris(4-hydroxyphenyl)-4-propyl-1H-pyrazole] | 73 |  |
| Oc1ccc(Cn2ccnc2S)cc1 [Compound 595, 1-(4-Hydroxybenzyl)imidazole-2-thiol] | 63 |  |
| Cc1nccc2c1[nH]c1ccccc12 [Compound 597, Harmane] | 60 |  |
| CC(=O)O.NC(=NCCC[C@H](N)C(=O)O)NO [Compound 598, NG-Hydroxy-L-arginine acetate] |  | Compound effect (percent receptor signaling in presence of test compound, relative lux units relative to the SCH23390 control) [1]: 94% |
| CC1=C(/C=C/C(C)=C/C=C/C(C)=C/C(=O)Nc2ccc(O)cc2)C(C)(C)CCC1 [Compound 599, Retinoic acid p-hydroxyanilide] |  | Compound effect (percent receptor signaling in presence of test compound, relative lux units relative to the SCH23390 control) [1]: 88% |
| CCCCC#Cc1nc(N)c2ncn([C@@H]3O[C@H](C(=O)NCC)[C@@H](O)[C@H]3O)c2n1 [Compound 600, HE-NECA] |  | Compound effect (percent receptor signaling in presence of test compound, relative lux units relative to the SCH23390 control) [1]: 99% |
| Cl.N[C@@H](Cc1cnc[nH]1)C(=O)O [Compound 601, L-Histidine hydrochloride] | 91 |  |
| NC(=O)NO [Compound 604, Hydroxyurea] |  | Compound effect (percent receptor signaling in presence of test compound, relative lux units relative to the SCH23390 control) [1]: 122% |
| COc1cc(C(O)CO)ccc1OS(=O)(=O)[O-].[K+] (stereo not shown) [Compound 607, MHPG sulfate potassium] |  | Compound effect (percent receptor signaling in presence of test compound, relative lux units relative to the SCH23390 control) [1]: 131% |
| O=C(O)Cc1c[nH]c2ccc(O)cc12 [Compound 608, 5-Hydroxyindolacetic acid] |  | Compound effect (percent receptor signaling in presence of test compound, relative lux units relative to the SCH23390 control) [1]: 85% |
| CN1[C@@H]2CC[C@H]1C[C@@H](OC(=O)[C@H](CO)c1ccccc1)C2 [Compound 609, L-Hyoscyamine] | 75 |  |
| Oc1ccc(O)cc1 [Compound 610, Hydroquinone] | 89 |  |
| S=C=Nc1ccc2oc(C3=NCCN3)cc2c1 [Compound 611, BU99006] | 104 |  |

| Compound | Compound effect (percent receptor signaling in presence of test compound, relative lux units relative to the SCH23390 control) | also measured |
| --- | --- | --- |
| Cl.Cl.NNCc1cccc(O)c1 [Compound 612, 3-Hydroxybenzylhydrazine dihydrochloride] | 104 |  |
| CCCc1c(OCCCOc2ccc(OCC(=O)O)cc2)ccc(C(C)=O)c1O [Compound 614, L-165,041] | 116 |  |
| N[C@@H](Cc1c[nH]c2ccc(O)cc12)C(=O)O [Compound 615, 5-Hydroxy-L-tryptophan] | 126 |  |
| Cl.NO [Compound 616, Hydroxylamine hydrochloride] |  | Compound effect (percent receptor signaling in presence of test compound, relative lux units relative to the SCH23390 control) [1]: 118% |
| NNC(=O)c1ccc(O)cc1 [Compound 617, 4-Hydroxybenzhydrazide] | 78 |  |
| C[N+]1(C)CCOC(O)(c2ccc(-c3ccc(C4(O)C[N+](C)(C)CCO4)cc3)cc2)C1 (stereo not shown) [Compound 618, Hemicholinium-3] | 106 |  |
| Cl.NC(N)=NCCNS(=O)(=O)c1cccc2cnccc12 [Compound 619, HA-1004 hydrochloride] |  | Compound effect (percent receptor signaling in presence of test compound, relative lux units relative to the SCH23390 control) [1]: 89% |
| CC1CNCCN1S(=O)(=O)c1cccc2cnccc12.Cl.Cl (stereo not shown) [Compound 620, H-7 dihydrochloride] |  | Compound effect (percent receptor signaling in presence of test compound, relative lux units relative to the SCH23390 control) [1]: 38% |
| Cl.O[Si](CCCN1CCCCC1)(c1ccc(F)cc1)C1CCCCC1 (stereo not shown) [Compound 621, Hexahydro-sila-difenidol hydrochloride, p-fluoro analog] |  | Compound effect (percent receptor signaling in presence of test compound, relative lux units relative to the SCH23390 control) [1]: 73% |
| CCCCCC(O)CCCC(=O)O.[Na] (stereo not shown) [Compound 623, 5-hydroxydecanoic acid sodium] |  | Compound effect (percent receptor signaling in presence of test compound, relative lux units relative to the SCH23390 control) [1]: 126% |
| Br.CCCN(CCC)[C@@H]1CCc2cccc(O)c2C1 [Compound 624, R-(+)-8-Hydroxy-DPAT hydrobromide] | 89 |  |
| Br.CCCN(CCC)[C@@H]1CCc2ccc(O)cc2C1 [Compound 625, R-(+)-7-Hydroxy-DPAT hydrobromide] |  | Compound effect (percent receptor signaling in presence of test compound, relative lux units relative to the SCH23390 control) [1]: 85% |
| COc1[nH]c2ccc(F)cc2c1C(=O)OCC1CCN(CCNS(C)(=O)=O)CC1.NS(=O)(=O)O [Compound 626, GR 125487 sulfamate salt] | 87 |  |
| Br.C[N+](C)(C)CCCCCNCC12CC3CC(CC(C3)C1)C2.[Br-] [Compound 627, IEM-1460] | 97 |  |
| CC(C)C(=O)c1c(C(C)C)nn2ccccc12 [Compound 628, Ibudilast] | 136 |  |
| Cl.O=C(O)Cc1c[nH]cn1 [Compound 629, Imidazole-4-acetic acid hydrochloride] | 122 |  |
| O=C1Nc2ccccc2/C1=C1/Nc2ccccc2/C1=N\O [Compound 630, Indirubin-3'-oxime] |  | Compound effect (percent receptor signaling in presence of test compound, relative lux units relative to the SCH23390 control) [1]: 23% |
| O=C1C(SCCO)=C(SCCO)C(=O)c2ccccc21 [Compound 631, NSC 95397] | 17 | % of the SCH23390 effect (percent inhibition of receptor response relative to the SCH23390 control): 83% |
| O=C1CCC(c2ccc(-n3ccnc3)cc2)=NN1 [Compound 632, Imazodan] | 92 |  |
| NC(=O)CI [Compound 633, Iodoacetamide] | 84 |  |
| O=S(=O)(c1cccc2cnccc12)N1CCNCC1 [Compound 634, HA-100] | 71 |  |
| CC(C)[N+]1(C)[C@@H]2CC[C@H]1C[C@@H](OC(=O)C(CO)c1ccccc1)C2 (stereo partly shown) [Compound 635, Ipratropium bromide] | 118 |  |
| CC(=O)[C@]1(O)Cc2c(O)c3c(c(O)c2[C@@H](O[C@H]2C[C@H](N)[C@H](O)[C@H](C)O2)C1)C(=O)c1ccccc1C3=O [Compound 636, Idarubicin] | 17 | inhibition at 10 µM (read-out: % of the SCH23390 effect (percent inhibition of receptor response relative to the SCH23390 control)): 83% |
| COc1ccc2[nH]c(I)c(CCNC(C)=O)c2c1 [Compound 637, 2-Iodomelatonin] | 113 |  |
| CN([C@@H](Cc1ccc(OS(=O)(=O)c2cccc3cnccc23)cc1)C(=O)N1CCN(c2ccccc2)CC1)S(=O)(=O)c1cccc2cnccc12 [Compound 638, KN-62] | 104 |  |
| O=S(=O)(c1cccc2c(I)cccc12)N1CCCNCC1 [Compound 641, ML-7] | 85 |  |
